Source: patent publication US20250387354A1 (SpringWorks Therapeutics, Inc., priority 2024, published 2025)

Test system: NF1-associated plexiform neurofibromas (PNs)
Assay: Phase 2b trial of mirdametinib: confirmed objective response by BICR volumetric MRI per REiNS criteria
Type: in vivo, human
Procedure: Study treatment was administered orally at a twice daily (BID) dose specified in the table below. Dosing was on a 28-day Cycle (4-week course) with a 3 week on/1 week off schedule. The treatment period will last for up to 24 Cycles followed by a 30-day Safety Follow-Up period.
A partial response was defined as PN decrease ≥20% compared to baseline using centrally read MRI volumetric analysis.
The major efficacy outcome measure was confirmed objective response rate (ORR), defined as the percentage of patients with complete response (disappearance of the target PN) or confirmed partial response ([…]). Responses were assessed by blinded independent central review (BICR) using volumetric magnetic resonance imaging (MRI) analysis per Response Evaluation in Neurofibromatosis and Schwannomatosis (REINS) criteria. A secondary efficacy objective was to determine the duration of response for patients who achieved a confirmed objective response.

For `O=C(NOC[C@H](O)CO)c1ccc(F)c(F)c1Nc1ccc(I)cc1F` (single isomer, unassigned) [mirdametinib], the “ORR also considering confirmed objective responses after cycle 24” value (adults) was 45% and the “ORR also considering confirmed objective responses after cycle 24” value (pediatric patients) was 54%.
